Measured values published in PubChem BioAssay (NCI).
Where “and” joins values, the source holds several entries; their conditions need not be identical. Equal values may be shown once.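 Interpolation was linear, between the two tested concentrations surrounding the appropriate level; five concentrations were tested over 48 hours in 96-well plates. GI50 marks 50% less growth. The concentration for full growth arrest is given as TGI.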

What was measured:
Assay in all cases: NCI anticancer screen, dose series, 48 h
M14 melanoma = test system: M14 melanoma
HT29 colon = test system: HT29 colon
HOP-92 NSCLC = test system: HOP-92 NSCLC
SNB-19 CNS = test system: SNB-19 CNS
TK-10 renal = test system: TK-10 renal
UACC-257 melanoma = test system: UACC-257 melanoma
SK-MEL-2 melanoma = test system: SK-MEL-2 melanoma
KM12 colon = test system: KM12 colon
HCT-15 colon = test system: HCT-15 colon
NCI-H23 lung = test system: NCI-H23 lung
COLO 205 colon = test system: COLO 205 colon
SF-295 CNS = test system: SF-295 CNS
K-562 leukemia = test system: K-562 leukemia
MALME-3M melanoma = test system: MALME-3M melanoma
NCI/ADR-RES ovarian = test system: NCI/ADR-RES ovarian
SK-OV-3 ovarian = test system: SK-OV-3 ovarian
CCRF-CEM leukemia = test system: CCRF-CEM leukemia
LOX IMVI melanoma = test system: LOX IMVI melanoma
UACC-62 melanoma = test system: UACC-62 melanoma
SK-MEL-28 melanoma = test system: SK-MEL-28 melanoma
HCT-116 colon = test system: HCT-116 colon
SNB-75 CNS = test system: SNB-75 CNS
T-47D breast = test system: T-47D breast
SF-539 CNS = test system: SF-539 CNS
IGROV1 ovarian = test system: IGROV1 ovarian
U251 CNS = test system: U251 CNS
HCC-2998 colon = test system: HCC-2998 colon
MDA-MB-231 breast = test system: MDA-MB-231 breast
SR leukemia = test system: SR leukemia

For O=C(O)C(Cl)Cl, the GI50 (M14 melanoma) was over 10 mM, the TGI (M14 melanoma) was over 10 mM and the GI50 (HT29 colon) was 7.2 mM and > 10 mM. The TGI (HT29 colon) was over 10 mM, the GI50 (HOP-92 NSCLC) was 3.63 mM and > 10 mM and the TGI (HOP-92 NSCLC) was over 10 mM. The GI50 (SNB-19 CNS) was 7.52 mM and > 10 mM, the TGI (SNB-19 CNS) was over 10 mM and the GI50 (TK-10 renal) was over 10 mM. The TGI (TK-10 renal) was over 10 mM, the GI50 (UACC-257 melanoma) was over 10 mM and the TGI (UACC-257 melanoma) was over 10 mM. The GI50 (SK-MEL-2 melanoma) was 8.2 mM and > 10 mM, the TGI (SK-MEL-2 melanoma) was over 10 mM and the GI50 (KM12 colon) was over 10 mM. The TGI (KM12 colon) was over 10 mM, the GI50 (HCT-15 colon) was 6.68 mM and > 10 mM and the TGI (HCT-15 colon) was over 10 mM. For the same compound, the GI50 (NCI-H23 lung) was over 10 mM, the TGI (NCI-H23 lung) was over 10 mM and the GI50 (COLO 205 colon) was over 10 mM. The TGI (COLO 205 colon) was over 10 mM, the GI50 (SF-295 CNS) was 4.23 mM and > 10 mM and the TGI (SF-295 CNS) was over 10 mM. For the same compound, the GI50 (K-562 leukemia) was 6.3 mM and > 10 mM, the TGI (K-562 leukemia) was over 10 mM and the GI50 (MALME-3M melanoma) was 2.5 mM and > 10 mM. For the same compound, the TGI (MALME-3M melanoma) was over 10 mM, the GI50 (NCI/ADR-RES ovarian) was 7.66 mM and > 10 mM and the TGI (NCI/ADR-RES ovarian) was over 10 mM. For the same compound, the GI50 (SK-OV-3 ovarian) was over 10 mM, the TGI (SK-OV-3 ovarian) was over 10 mM and the GI50 (CCRF-CEM leukemia) was 4.92 mM and > 4.68 mM. For the same compound, the TGI (CCRF-CEM leukemia) was over 10 mM, the GI50 (LOX IMVI melanoma) was 7.49 mM and > 10 mM and the TGI (LOX IMVI melanoma) was over 10 mM. The GI50 (UACC-62 melanoma) was 6.71 mM and > 10 mM, the TGI (UACC-62 melanoma) was over 10 mM and the GI50 (SK-MEL-28 melanoma) was 3.15 mM and > 10 mM. For the same compound, the TGI (SK-MEL-28 melanoma) was over 10 mM, the GI50 (HCT-116 colon) was 6.7 mM and > 10 mM and the TGI (HCT-116 colon) was over 10 mM. The GI50 (SNB-75 CNS) was 3.5 mM and > 10 mM, the TGI (SNB-75 CNS) was over 10 mM and the GI50 (T-47D breast) was 4.1 mM and > 10 mM. For the same compound, the TGI (T-47D breast) was over 10 mM, the GI50 (SF-539 CNS) was over 10 mM and the TGI (SF-539 CNS) was over 10 mM. The GI50 (IGROV1 ovarian) was over 10 mM, the TGI (IGROV1 ovarian) was over 10 mM and the GI50 (U251 CNS) was 7.69 mM and > 10 mM. It also gave a TGI (U251 CNS) of over 10 mM, a GI50 (HCC-2998 colon) of over 10 mM and a TGI (HCC-2998 colon) of over 10 mM. It also gave a GI50 (MDA-MB-231 breast) of over 10 mM, a TGI (MDA-MB-231 breast) of over 10 mM and a GI50 (SR leukemia) of over 10 mM. For the same compound, the TGI (SR leukemia) was over 10 mM.
